One data set has as its target JAK1 (JH1) (Homo sapiens, UniProt P23458). In words: JH1 kinase assay, HTRF KinEASE-TK. It is filed as biochemical. The method, then:
We measured the ability of a compound to bind to JAK1/2/3 and the TYK2 JH1 domain by using HTRF® KinEASE™-TK kits (Millipore, Bedford, MA, USA). […] Next, SA-XL665 and TK antibody-Eu3 were added to the detection buffer and incubated for 1 h at RT. The HTRF signal was measured on a plate reader (Envision).
In general terms: TR-FRET usually uses a lanthanide donor and a delayed reading to cut background.

For data set [1], the system named is forty-four safety targets. In words: In vitro off-target panel of 44 safety targets. The following applies: 10 µM. As for the experimental part: The pharmacologic safety of QL-1200186 was tested by analyzing forty-four safety targets in vitro. The off-target effects of QL-1200186 on 24 G protein-coupled receptors (β1, β2, D1, H2, A2A, CB1, CB2,5-HT1A, 5-HT1B and D2S) were evaluated by measuring the changes in cyclic adenosine monophosphate and IP-1 levels. The effects of QL-1200186 on the current changes of eight ion-channel targets were determined by methods based on fluorescent imaging plate reading and patch clamps. Using stable transfer or transient plasmid transfer, the excitatory and inhibitory effects of QL-1200186 on glucocorticoid receptors and androgen receptors in the nucleus were determined by the change in luciferase expression. The inhibitory effects of QL-1200186 on seven enzymes (including cyclo-oxygenase-2, phosphodiesterase (PDE) 3A and PDE4D2) were evaluated by biochemical methods based on luminescence and fluorescence. After data analyses, radar charts were used to display the results.

Data set [2] has as its system TYK2/JAK1. Briefly: IFNα HEK293 (HEK-Blue IFN-α/β) reporter gene assay. In kind it is cell-based, human. The method, then: HEK-Blue™ IFN-α/β cells were used to determine the activity of QL-1200186. After 24 h of incubation with QL-1200186, HEK-Blue™ IFN-α/β cells (Invivogen; NKB-IFNAB) were stimulated with human IFNα (200 U/mL; catalog number: 11200–2; PBL Assay Science; Piscataway, NJ, USA) for 6 h. Stimulation of HEK-Blue IFN-α/β cells with human IFNα activates the JAK/STAT/ISGF3 pathway and subsequently induces the production of SEAP. Levels of SEAP in the supernatant were readily assessable using QUANTI-Blue™ Solution (InvivoGen, San Diego, CA, USA).

The subject of data set [3] is TYK2/JAK1. Briefly: IFNα-stimulated pSTAT5 in human PBMC (CD3+), FACS. It is filed as cell-based. As for the experimental part: With regard to IFNα-stimulated phosphorylation of STAT5 in human peripheral blood mononuclear cells (PBMCs), after incubation with QL-1200186 for 1 h, human PBMCs were stimulated with recombinant human IFNα (1000 U/mL; 11200–2; PBL Assay Science) for 30 min.
(§1) The stimulations stated above were terminated with prewarmed Lyse/Fix Buffer (558,049; BD Biosciences, San Jose, CA, USA) for 10 min. Cells were stained with an anti-cluster of differentiation (CD)3 fluorescein isothiocyanate (FITC) antibody (required for PBMCs but not for the other cell types), washed, and permeabilized on ice using Perm III Buffer (558,050; BD Biosciences) prior to staining with an Alexa Fluor 647 anti-phosphorylated (p)STAT5 (pY694) antibody for 30 min and analyzed by flow cytometry. Phosphorylation of STAT5 was quantified by the median fluorescence intensity (MFI) after gating on the CD3-positive population.

For data set [4], the system named is TYK2/JAK2. Briefly: IL-12/IL-18-induced IFNγ production in NK-92 cells, ELISA. It is filed as cell-based, human. As for the experimental part: (§2) The inhibitory effect of QL-1200186 on IL-12/IL-18-induced IFNγ production in NK cells or human whole blood was determined by enzyme-linked immunosorbent assay (ELISA). NK92 cells were stimulated with recombinant human IL-12 (2 ng/mL; 200–12; PeproTech, Cranbury, NJ, USA) and recombinant human IL-18 (5 ng/mL; 9124-IL-050/CF; R&D Systems, Minneapolis, MN, USA) with or without QL-1200186 for 24 h at 37 °C. For human whole blood cells, whole blood (200 μL) was preincubated with the compound for 1 h and then stimulated with recombinant human IL-12 (2 ng/mL) or recombinant human IL-18 (10 ng/mL) for 24 h. After centrifugation, the supernatant was collected, and IFNγ production in the supernatant was measured with human IFNγ ELISA kits according to the manufacturer’s instructions (Biolegend, 430,104).
(In general: ELISA stands for enzyme-linked immunosorbent assay.)

Data set [5] deals with TYK2/JAK1. Briefly: IFNα-induced pSTAT1 in CD19+ B cells of human PBMCs. In kind it is cell-based. As for the experimental part: The reaction was terminated by collecting cells for surface staining. Cells were stained with anti-CD3 FITC (300406; Biolegend, San Diego, CA, USA), anti-CD19 APC (555415; BD Biosciences) or aqua fluorescent reactive dye BV421 (L34966A; Invitrogen, Carlsbad, CA, USA) antibodies for 20 min. After washing, fixation buffer (557870; BD Biosciences) was added and incubated for 10 min. Cells were washed and permeabilized on ice using Perm III Buffer (558050; BD Biosciences). Cells were stained with PE anti-PSTAT1 antibody (562069; BD Biosciences) for 30 min and analyzed by flow cytometry.

A further data set concerns JAK1/JAK3. Briefly: IL-2-stimulated pSTAT5 in human PBMC. In kind it is cell-based. The conditions noted are these: @10μM. The method, then:
With regard to IL-2-stimulated JAK1/3 activation in human PBMCs, after 1 h of incubation with QL-1200186, human PBMCs were stimulated with human IL-2 (20 ng/mL; C013; Novoprotein) for 20 min.
as §1

Data set [6] relates to TYK2/JAK2. Briefly: IL-12/IL-18-induced IFNγ production in human whole blood, ELISA. It is filed as cell-based. The following applies: IL-12-induced. As for the experimental part:
as §2

Data set [7] in a line: Pharmacokinetic study in C57BL/6 mice. It is filed as in vivo. As for the experimental part:
The PK study was conducted using healthy male C57BL/6 mice (18–22 g, n = 6). Mice were fed and given free access to water prior to dosing. QL-1200186 was administered via oral or intravenous routes at doses of 10 mg/kg and 1 mg/kg, respectively. Blood samples were collected at 0.0833, 0.25, 0.5, 1, 2, 4, 8 and 24 h from the saphenous vein. Plasma was separated within 1 h of sampling by centrifugation at 1000 g. Liquid chromatography–tandem mass spectrometry of the sample was carried out on a mass spectrometer (API 5500; AB Sciex, Framingham, MA, USA). Chromatographic separation was achieved using a C18 column (2.6 µm, 50 × 3.0 mm; Kinetex; Phenomenex, Torrance, CA, USA). The main PK parameters were calculated by WinNonlin 8.0 (Certara, Princeton, NJ, USA).

The nature of a further data set: logD7.4. It is filed as physicochemical. The following applies: pH 7.4.

Each structure is given as a SMILES string.

Chain of JAK1 (JH1) (P23458 875-1153 limits assumed): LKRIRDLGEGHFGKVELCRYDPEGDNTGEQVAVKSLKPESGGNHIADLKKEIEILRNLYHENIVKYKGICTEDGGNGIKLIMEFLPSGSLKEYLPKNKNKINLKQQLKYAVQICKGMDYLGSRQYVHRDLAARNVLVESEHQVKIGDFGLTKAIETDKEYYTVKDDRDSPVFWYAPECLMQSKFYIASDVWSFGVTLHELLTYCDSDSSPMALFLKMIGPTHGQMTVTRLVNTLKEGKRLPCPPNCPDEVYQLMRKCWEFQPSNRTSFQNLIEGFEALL

One may read the IC50 as the concentration at which inhibition is half-maximal. Read a high IC50 as lower potency. As usually defined, the AUC is concentration integrated over time. Low values mean low exposure, high ones high exposure. As usually defined, the Vss is a proportionality between amount in the body and measured concentration, not a real space. As a reminder, the Cmax is the peak of the concentration-time curve. With `CNC(=O)c1cnc2cc1Nc1cc(cc(-c3ccn(C)n3)c1OC)CCOCc1cccc(n1)N2` [QL-1200186, 5^6-methoxy-N-methyl-5^5-(1-methyl-1H-pyrazol-3-yl)-8-oxa-2,4-diaza-1(2,6),3(2,4)-dipyridina-5(1,3)-benzenacyclononaphane-3^5-carboxamide], on JAK1 (JH1), the IC50 was above 9900 nM and the “Kinase assay (JH1) JAK1 IC50” value was “did not show inhibitory activity”. Moreover, the “in vitro off-target safety, 44 safety targets” value in data set [1] is “suitable safety”. This molecule also yielded an IC50 with TYK2/JAK1 [2] of 3.9 nM. In addition, the half-maximal inhibitory concentration (IC50) in the data set with TYK2/JAK1 [3] came to 7.26 nM. The molecule further had an IC50 in the data set on TYK2/JAK2 [4] of 32.5 nM. The IC50 in the data set on TYK2/JAK1 [5] came out at 1.43 nM. Further, the “IL-2- pSTAT5 in PBMC (JAK1/JAK3) inhibition” value in the data set with JAK1/JAK3 is on record as around 18% inhibition @10μM. Further, the “IFNγ production in human whole blood” value with TYK2/JAK2 [6] is “significantly reduced”. In data set [7] (intravenous 1 mg/kg), this molecule yielded an AUC of 1482 ng·h/mL, a CL of 11.6 mL/min/kg, an MRTInf of 1.22 h and a T1/2 of 1.45 h. The molecule also showed a Vss in data set [7] (intravenous 1 mg/kg) of 0.842 L/kg. In [7] (oral 10 mg/kg), the AUC worked out at 20320 ng·h/mL, the Cmax is 3543 ng/mL, the “F (bioavailability)” value is recorded as 137% and the MRTInf is 4.34 h. In [7] (oral 10 mg/kg), this molecule displayed a T1/2 of 2.73 h. In addition, the logD7.4 in “logD7.4” was 3.6.

The values above are taken from paper PMC10578023 (Cell Communication and Signaling : CCS, 2023).
